Type in all cases: cell-based
For assay [1], the target named is T1, HER2 YVMA (Homo sapiens, UniProt P04626, INS775YVMA).
T1 construct: expressed in transfected cells; host or cells: BaF3 (murine pro-B)
The assay is described as follows: BaF3 cell proliferation assay, HER2 YVMA (Table B). The note with it: potency code, 3 days, CellTiterGlo, read-out: HER2 YVMA (Activity for Inhibiting HER2). On the technique in general: In ATP-based viability assays light output follows the ATP content of the culture.

The target in assay [2] is T2, EGFR V3 (Homo sapiens, UniProt P00533, DELINS30-297G).
T2 construct: expressed in transfected cells; host or cells: BaF3 (murine pro-B), retroviral pMXs-IRES-Blasticidin
The assay is described as follows: BaF3 cell proliferation assay, EGFR V3 (Table A). Conditions: potency code, 3 days, CellTiterGlo, read-out: EGFR V3 (Activity for Inhibiting EGFR). As for the experimental part:
(§1) Retroviral Production: EGFR mutants were subcloned into pMXs-IRES-Blasticidin (RTV-016, Cell Biolabs, San Diego, Calif.). Retroviral expression vector retrovirus was produced by transient transfection of HEK 293T cells with the retroviral EGFR mutant expression vector pMXs-IRES-Blasticidin (RTV-016, Cell Biolabs), pCMV-Gag-Pol vector and pCMV-VSV-G-Envelope vector. Briefly, HEK 293T/17 cells were plated in 100 mm collagen coated plate (354450, Corning Life Sciences, Tewksbury, Mass.) (4×10^5 per plate) and incubated overnight. The next day, retroviral plasmids (3 μg of EGFR mutant, 1.0 μg of pCMV-Gag-Pol and 0.5 μg pCMV-VSV-G) were mixed in 500 μl of Optimem (31985, Life Technologies). The mixture was incubated at room temperature for 5 min and then added to Optimem containing transfection reagent Lipofectamine (11668, Invitrogen) and incubated for 20 minutes. Mixture was then added dropwise to HEK 293T cells. The next day the medium was replaced with fresh culture medium and retrovirus was harvested @ 24 and 48 hrs.
(§2) Generation of EGFR mutant stable cell lines: BaF3 cells (1.5E5 cells) were infected with 1 ml of viral supernatant supplemented with 8 μg/ml polybrene by centrifuging for 30 min at 1000 rpm. Cells were placed in a 37° C. incubator overnight. Cells were then spun for 5 minutes to pellet the cells. Supernatant was removed and cells re-infected a fresh 1 ml of viral supernatant supplemented with 8 μg/ml polybrene by centrifuging for 30 min at 1000 rpm. Cells were placed in 37° C. incubator overnight. […] After 48 hours cells were selected for retroviral infection in 10 μg/ml Blasticidin for one week. Blasticidin resistant populations were washed twice in phosphate buffered saline before plating in media lacking IL-3 to select for IL-3 independent growth.
(§3) EC50 values were determined with the same application.

Assay [3] concerns the target T2, EGFR V3. Description: Activity for inhibiting EGFR (Table A), EGFR V3 (EGFR-Viii). Conditions: read-out: EGFR V3, potency code (IC50).
Assay [4] has as its target T3, EGFR WT (Homo sapiens, UniProt P00533). Description: BaF3 cell proliferation assay, EGFR WT (Table A). Conditions: potency code, 3 days, CellTiterGlo, read-out: EGFR WT (Activity for Inhibiting EGFR). As for the experimental part: as §1, §2, §3
For assay [5], the target named is T4, HER2 S310F (Homo sapiens, UniProt P04626, S310F).
T4 construct: expressed in transfected cells; host or cells: BaF3 (murine pro-B)
The assay is described as follows: BaF3 cell proliferation assay, HER2 S310F (Table B). The note with it: potency code, 3 days, CellTiterGlo, read-out: HER2 S310F (Activity for Inhibiting HER2).

For assay [6], the target named is T1, HER2 YVMA. The assay is described as follows: Activity for inhibiting HER2 (Table B), HER2 YVMA. Conditions: read-out: HER2 YVMA, potency code (IC50). As for the experimental part:
as §3

In assay [7] the target is T4, HER2 S310F. Description: Activity for inhibiting HER2 (Table B), HER2 S310F. The note with it: read-out: HER2 S310F, potency code (IC50). As for the experimental part:
as §3

Assay [8] deals with T3, EGFR WT. Description: Activity for inhibiting EGFR (Table A), EGFR WT. The note with it: read-out: EGFR WT, potency code (IC50).

T4 sequence (P04626 23-1255 S310F): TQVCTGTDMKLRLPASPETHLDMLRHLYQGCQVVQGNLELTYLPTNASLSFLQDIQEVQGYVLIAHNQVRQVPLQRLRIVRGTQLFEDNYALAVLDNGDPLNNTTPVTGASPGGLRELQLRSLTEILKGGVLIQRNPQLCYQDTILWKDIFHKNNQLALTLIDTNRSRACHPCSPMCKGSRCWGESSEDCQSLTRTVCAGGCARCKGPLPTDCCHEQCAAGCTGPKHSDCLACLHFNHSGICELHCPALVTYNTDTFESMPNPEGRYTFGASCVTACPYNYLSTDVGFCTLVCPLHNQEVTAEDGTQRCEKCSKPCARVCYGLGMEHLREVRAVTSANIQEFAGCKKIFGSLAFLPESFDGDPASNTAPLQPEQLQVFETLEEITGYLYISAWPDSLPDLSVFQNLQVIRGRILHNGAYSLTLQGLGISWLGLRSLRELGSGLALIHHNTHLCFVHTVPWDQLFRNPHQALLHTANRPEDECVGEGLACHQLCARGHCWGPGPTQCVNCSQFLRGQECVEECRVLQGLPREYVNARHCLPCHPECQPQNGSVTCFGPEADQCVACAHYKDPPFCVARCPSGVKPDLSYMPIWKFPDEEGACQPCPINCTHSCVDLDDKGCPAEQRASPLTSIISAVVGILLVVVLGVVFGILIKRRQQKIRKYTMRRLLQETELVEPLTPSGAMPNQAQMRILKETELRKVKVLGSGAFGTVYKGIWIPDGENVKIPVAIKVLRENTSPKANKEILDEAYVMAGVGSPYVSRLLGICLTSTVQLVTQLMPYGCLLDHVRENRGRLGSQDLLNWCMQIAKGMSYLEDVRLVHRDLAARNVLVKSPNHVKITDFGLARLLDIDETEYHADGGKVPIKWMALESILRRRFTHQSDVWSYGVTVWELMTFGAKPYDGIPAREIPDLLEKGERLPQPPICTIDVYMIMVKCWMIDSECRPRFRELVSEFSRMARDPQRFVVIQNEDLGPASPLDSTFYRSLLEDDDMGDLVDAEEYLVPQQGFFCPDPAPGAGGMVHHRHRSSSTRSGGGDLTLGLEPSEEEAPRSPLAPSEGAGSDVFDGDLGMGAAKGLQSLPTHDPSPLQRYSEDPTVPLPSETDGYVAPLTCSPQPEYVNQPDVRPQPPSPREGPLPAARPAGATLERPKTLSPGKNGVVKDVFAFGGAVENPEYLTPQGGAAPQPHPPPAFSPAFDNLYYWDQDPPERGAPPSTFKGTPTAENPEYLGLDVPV
T3 sequence (P00533 25-1210 N540K): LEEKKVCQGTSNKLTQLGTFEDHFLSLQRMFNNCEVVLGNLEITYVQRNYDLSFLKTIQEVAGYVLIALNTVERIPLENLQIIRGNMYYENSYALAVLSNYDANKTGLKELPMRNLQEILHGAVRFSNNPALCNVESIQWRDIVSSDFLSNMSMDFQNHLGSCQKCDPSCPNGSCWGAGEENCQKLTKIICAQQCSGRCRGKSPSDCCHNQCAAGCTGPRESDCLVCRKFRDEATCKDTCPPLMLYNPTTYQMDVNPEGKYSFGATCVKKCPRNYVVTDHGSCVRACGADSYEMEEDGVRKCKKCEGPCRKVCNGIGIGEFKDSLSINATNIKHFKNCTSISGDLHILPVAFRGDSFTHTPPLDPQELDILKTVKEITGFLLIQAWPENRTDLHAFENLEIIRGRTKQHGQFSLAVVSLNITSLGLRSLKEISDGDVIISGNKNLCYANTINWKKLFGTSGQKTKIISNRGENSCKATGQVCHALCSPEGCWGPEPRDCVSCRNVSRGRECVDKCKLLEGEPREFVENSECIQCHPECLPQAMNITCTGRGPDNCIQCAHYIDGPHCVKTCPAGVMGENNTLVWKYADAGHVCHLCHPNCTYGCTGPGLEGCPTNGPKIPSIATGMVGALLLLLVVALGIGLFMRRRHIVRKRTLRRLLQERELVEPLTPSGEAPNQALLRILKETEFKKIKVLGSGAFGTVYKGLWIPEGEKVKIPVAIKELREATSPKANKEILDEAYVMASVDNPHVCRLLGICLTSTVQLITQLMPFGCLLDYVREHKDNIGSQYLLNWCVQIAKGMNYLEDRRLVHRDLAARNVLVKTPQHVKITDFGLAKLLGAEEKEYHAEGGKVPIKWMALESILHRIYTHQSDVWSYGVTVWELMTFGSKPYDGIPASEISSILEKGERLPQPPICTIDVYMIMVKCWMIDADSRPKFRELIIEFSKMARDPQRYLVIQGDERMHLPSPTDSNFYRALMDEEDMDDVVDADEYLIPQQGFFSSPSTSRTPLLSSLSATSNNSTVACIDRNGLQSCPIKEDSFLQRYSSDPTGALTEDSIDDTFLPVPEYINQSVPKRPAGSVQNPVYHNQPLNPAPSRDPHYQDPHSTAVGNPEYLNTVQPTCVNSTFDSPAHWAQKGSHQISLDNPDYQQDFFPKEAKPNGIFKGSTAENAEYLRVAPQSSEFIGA
T2 sequence (P00533 with tags, fused parts or gaps DELINS30-297G): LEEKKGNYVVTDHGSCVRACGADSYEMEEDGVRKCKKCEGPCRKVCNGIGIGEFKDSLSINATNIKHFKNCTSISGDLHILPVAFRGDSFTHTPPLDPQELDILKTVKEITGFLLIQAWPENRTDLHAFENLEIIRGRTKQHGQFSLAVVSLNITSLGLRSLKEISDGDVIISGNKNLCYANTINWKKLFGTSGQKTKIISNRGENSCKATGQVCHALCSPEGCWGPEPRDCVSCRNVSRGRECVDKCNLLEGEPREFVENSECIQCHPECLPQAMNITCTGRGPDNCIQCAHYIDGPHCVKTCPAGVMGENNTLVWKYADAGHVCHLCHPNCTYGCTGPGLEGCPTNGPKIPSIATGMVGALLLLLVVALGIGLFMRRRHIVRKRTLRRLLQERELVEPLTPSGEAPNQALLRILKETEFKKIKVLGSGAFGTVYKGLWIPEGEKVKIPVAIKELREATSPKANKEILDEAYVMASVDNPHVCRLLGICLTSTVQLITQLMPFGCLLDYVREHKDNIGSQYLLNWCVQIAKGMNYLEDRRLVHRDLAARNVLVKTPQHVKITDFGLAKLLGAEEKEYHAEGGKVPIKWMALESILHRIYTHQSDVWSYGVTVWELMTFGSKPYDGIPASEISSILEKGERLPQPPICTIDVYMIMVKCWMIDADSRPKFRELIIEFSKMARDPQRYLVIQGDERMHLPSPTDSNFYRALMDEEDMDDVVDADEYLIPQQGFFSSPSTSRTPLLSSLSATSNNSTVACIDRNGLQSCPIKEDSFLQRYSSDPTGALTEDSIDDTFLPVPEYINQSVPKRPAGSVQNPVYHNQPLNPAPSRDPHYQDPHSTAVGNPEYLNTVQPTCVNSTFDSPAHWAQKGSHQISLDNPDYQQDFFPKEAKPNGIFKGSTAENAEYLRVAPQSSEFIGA
T1 sequence (P04626 with tags, fused parts or gaps INS775YVMA): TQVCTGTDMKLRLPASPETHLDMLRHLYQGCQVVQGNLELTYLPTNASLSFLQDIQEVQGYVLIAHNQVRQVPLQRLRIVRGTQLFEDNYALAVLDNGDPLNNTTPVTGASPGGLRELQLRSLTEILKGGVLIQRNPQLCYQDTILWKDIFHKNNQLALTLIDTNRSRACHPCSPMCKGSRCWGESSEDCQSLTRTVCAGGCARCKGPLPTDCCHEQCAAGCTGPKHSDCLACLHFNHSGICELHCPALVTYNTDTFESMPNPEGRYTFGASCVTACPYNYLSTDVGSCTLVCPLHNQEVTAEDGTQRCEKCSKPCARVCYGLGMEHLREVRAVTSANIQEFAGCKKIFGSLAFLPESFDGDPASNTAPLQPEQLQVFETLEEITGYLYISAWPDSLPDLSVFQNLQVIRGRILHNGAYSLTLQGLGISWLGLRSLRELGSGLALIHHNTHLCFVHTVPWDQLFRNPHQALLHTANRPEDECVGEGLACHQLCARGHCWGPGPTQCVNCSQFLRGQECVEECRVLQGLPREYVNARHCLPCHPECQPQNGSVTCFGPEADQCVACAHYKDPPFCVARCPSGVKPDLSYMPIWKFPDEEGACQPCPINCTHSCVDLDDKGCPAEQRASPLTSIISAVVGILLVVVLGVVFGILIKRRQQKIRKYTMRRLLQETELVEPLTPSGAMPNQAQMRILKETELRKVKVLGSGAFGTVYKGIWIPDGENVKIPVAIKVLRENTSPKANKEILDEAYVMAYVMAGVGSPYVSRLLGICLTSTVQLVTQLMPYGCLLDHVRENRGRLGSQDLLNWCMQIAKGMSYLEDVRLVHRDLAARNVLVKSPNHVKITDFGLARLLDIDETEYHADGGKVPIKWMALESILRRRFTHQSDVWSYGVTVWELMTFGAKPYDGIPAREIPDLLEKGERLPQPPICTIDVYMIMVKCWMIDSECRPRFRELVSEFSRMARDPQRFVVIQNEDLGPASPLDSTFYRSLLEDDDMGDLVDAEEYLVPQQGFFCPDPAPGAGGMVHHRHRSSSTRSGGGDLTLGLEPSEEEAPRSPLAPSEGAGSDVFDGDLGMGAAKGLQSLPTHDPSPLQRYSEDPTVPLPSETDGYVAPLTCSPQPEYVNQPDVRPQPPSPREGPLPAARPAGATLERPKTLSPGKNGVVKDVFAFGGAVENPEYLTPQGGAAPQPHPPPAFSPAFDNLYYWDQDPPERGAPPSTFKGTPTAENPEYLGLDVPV

Regarding `C=CC(=O)Nc1cc2c(Nc3ccc(OCc4ccccn4)c(Cl)c3)ncnc2cc1O[C@H]1CCCN(C)CC1` [compound 99, N-(4-((3-chloro-4-(pyridin-2-ylmethoxy)phenyl)amino)-7-((1-methylazepan-4-yl)oxy)quinazolin-6-yl)acrylamide], the IC50 at HER2 YVMA [1] fell in the range of 200 to 300 nM; at EGFR V3 [2], 20 to 30 nM; at EGFR V3 [3], 20 to 30 nM; on EGFR WT [4], 200 to 300 nM; at HER2 S310F [5], 30 to 50 nM; on HER2 YVMA [6], 200 to 300 nM. The figures for the IC50 at HER2 S310F [7] and on EGFR WT [8] were 30 to 50 nM and 200 to 300 nM, respectively.
For `C=CC(=O)Nc1cc2c(Nc3cc(C)c(OCc4ccccn4)cc3F)ncnc2cc1OCCN1CCOCC1` [compound 100, N-(4-((2-fluoro-5-methyl-4-(pyridin-2-ylmethoxy)phenyl)amino)-7-(2-morpholinoethoxy)quinazolin-6-yl)acrylamide], the IC50 on HER2 YVMA [1] fell in the range of 300 to 500 nM; on EGFR V3 [2], 30 to 50 nM; at EGFR V3 [3], 30 to 50 nM; on EGFR WT [4], 300 to 500 nM; at HER2 S310F [5], 50 to 100 nM; on HER2 YVMA [6], 300 to 500 nM. Besides, the IC50 at HER2 S310F [7] lay in the range of 50 to 100 nM; on EGFR WT [8], 300 to 500 nM.
Consider `C=CC(=O)Nc1cc2c(Nc3ccc(OCc4ccccn4)c(Cl)c3)ncnc2cc1OC[C@H]1CCN(C)C1` [compound 101, N-(4-((3-chloro-4-(pyridin-2-ylmethoxy)phenyl)amino)-7-((1-methylpyrrolidin-3-yl)methoxy)quinazolin-6-yl)acrylamide], for which the IC50 was 30 to 50 nM at HER2 YVMA [1]; 10 to 20 nM on EGFR V3 [2]; 10 to 20 nM at EGFR V3 [3]; 100 to 200 nM at EGFR WT [4]; 10 to 20 nM at HER2 S310F [5]; 30 to 50 nM on HER2 YVMA [6]. The IC50 is 10 to 20 nM on HER2 S310F [7] and 100 to 200 nM at EGFR WT [8].
For the compound `C=CC(=O)Nc1cc2c(Nc3ccc(OCc4ccccn4)c(Cl)c3)ncnc2cc1OC[C@H]1C[C@@H]2CN(C)C[C@@H]2C1` [compound 103, N-(4-((3-chloro-4-(pyridin-2-ylmethoxy)phenyl)amino)-7-(((3aR,5s,6aS)-2-methyloctahydrocyclopenta[c]pyrrol-5-yl)methoxy)quinazolin-6-yl)acrylamide], the IC50 at HER2 YVMA [1] lay within 50 to 100 nM; at EGFR V3 [2], 30 to 50 nM; on EGFR V3 [3] it was 30 to 50 nM; at EGFR WT [4], 200 to 300 nM; on HER2 S310F [5] it was 10 to 20 nM; at HER2 YVMA [6], 50 to 100 nM. For the same compound, the IC50 fell in the range of 10 to 20 nM at HER2 S310F [7] and 200 to 300 nM at EGFR WT [8].
Take `C=CC(=O)Nc1cc2c(Nc3ccc(Oc4ccc(C)nc4)c(C)c3)ncnc2cc1C#C[C@@H]1[C@H]2CN(C)C[C@@H]12` [compound 104, N-(7-(((1R,5S,6s)-3-methyl-3-azabicyclo[3.1.0]hexan-6-yl)ethynyl)-4-((3-methyl-4-((6-methylpyridin-3-yl)oxy)phenyl)amino)quinazolin-6-yl)acrylamide]: the IC50 on HER2 YVMA [1] is 30 to 50 nM; at EGFR V3 [2] it was 30 to 50 nM; at EGFR V3 [3] it was 30 to 50 nM; on EGFR WT [4] it was 20 to 30 nM; on HER2 S310F [5] it was 30 to 50 nM; at HER2 YVMA [6], 30 to 50 nM. In addition, the results for the IC50 on HER2 S310F [7] and at EGFR WT [8] were 30 to 50 nM and 20 to 30 nM, respectively.
Regarding `C=CC(=O)Nc1cc2c(Nc3ccc(OCc4ccccn4)c(Cl)c3)ncnc2cc1C#CC1[C@H]2CNC[C@@H]12` (stereo partly drawn) [compound 105, N-(7-((1R,5S,6s)-3-azabicyclo[3.1.0]hexan-6-ylethynyl)-4-((3-chloro-4-(pyridin-2-ylmethoxy)phenyl)amino)quinazolin-6-yl)acrylamide], the IC50 lay in the range of 100 to 200 nM at HER2 YVMA [1]; 50 to 100 nM on EGFR V3 [2]; 50 to 100 nM on EGFR V3 [3]; 500 to 1000 nM on EGFR WT [4]; 30 to 50 nM at HER2 S310F [5]; 100 to 200 nM on HER2 YVMA [6]. Besides, the IC50 was 30 to 50 nM on HER2 S310F [7] and 500 to 1000 nM at EGFR WT [8].
Regarding `C=CC(=O)Nc1cc2c(Nc3ccc(Oc4ccccc4)cc3)ncnc2cc1C#C[C@@H]1[C@H]2CN(C)C[C@@H]12` [compound 106, N-(7-(((1R,5S,6s)-3-methyl-3-azabicyclo[3.1.0]hexan-6-yl)ethynyl)-4-((4-phenoxyphenyl)amino)quinazolin-6-yl)acrylamide], the IC50 is 100 to 200 nM on HER2 YVMA [1]; 30 to 50 nM on EGFR V3 [2]; 30 to 50 nM at EGFR V3 [3]; 100 to 200 nM at EGFR WT [4]; 30 to 50 nM at HER2 S310F [5]; 100 to 200 nM at HER2 YVMA [6]. The IC50 is 30 to 50 nM on HER2 S310F [7] and 100 to 200 nM on EGFR WT [8].
Regarding `CC#CC(=O)Nc1cc2c(Nc3ccc(OCc4ccccn4)c(Cl)c3)ncnc2cc1C#CC1[C@H]2CN(C)C[C@@H]12` (stereo partly drawn) [compound 107, N-(4-((3-chloro-4-(pyridin-2-ylmethoxy)phenyl)amino)-7-(((1R,5S,6s)-3-methyl-3-azabicyclo[3.1.0]hexan-6-yl)ethynyl)quinazolin-6-yl)but-2-ynamide], the IC50 fell in the range of 30 to 50 nM at HER2 YVMA [1]; 50 to 100 nM at EGFR V3 [2]; 50 to 100 nM on EGFR V3 [3]; 200 to 300 nM on EGFR WT [4]; 10 to 20 nM on HER2 S310F [5]; 30 to 50 nM at HER2 YVMA [6]. Further, the IC50 was in the range of 10 to 20 nM at HER2 S310F [7] and 200 to 300 nM on EGFR WT [8].
As for `CC#CC(=O)Nc1cc2c(Nc3ccc(Oc4ccccc4)cc3)ncnc2cc1C#C[C@@H]1[C@H]2CN(C)C[C@@H]12` [compound 108, N-(7-(((1R,5S,6s)-3-methyl-3-azabicyclo[3.1.0]hexan-6-yl)ethynyl)-4-((4-phenoxyphenyl)amino)quinazolin-6-yl)but-2-ynamide], the IC50 on HER2 YVMA [1] is 500 to 1000 nM; at EGFR V3 [2], 100 to 200 nM; at EGFR V3 [3], 100 to 200 nM; at EGFR WT [4], 500 to 1000 nM; at HER2 S310F [5], 50 to 100 nM; on HER2 YVMA [6], 500 to 1000 nM. For the same compound, the IC50 at HER2 S310F [7] was 50 to 100 nM; at EGFR WT [8], 500 to 1000 nM.
Turning to `C=C(F)C(=O)Nc1cc2c(Nc3ccc(OCc4ccccn4)c(Cl)c3)ncnc2cc1OCCN1CCOCC1` [compound 109, N-(4-((3-chloro-4-(pyridin-2-ylmethoxy)phenyl)amino)-7-(2-morpholinoethoxy)quinazolin-6-yl)-2-fluoroacrylamide], the IC50 at HER2 YVMA [1] is 50 to 100 nM; at EGFR V3 [2], 10 to 20 nM; at EGFR V3 [3], 10 to 20 nM; at EGFR WT [4], 30 to 50 nM; at HER2 S310F [5], 10 to 20 nM; on HER2 YVMA [6], 50 to 100 nM. The IC50 at HER2 S310F [7] lay in the range of 10 to 20 nM; on EGFR WT [8], 30 to 50 nM.
Turning to `C=CC(=O)Nc1cc2c(Nc3ccc(OCc4ccccn4)c(Cl)c3)ncnc2cc1OC1CCN(C)CC1` [compound 110, N-(4-((3-chloro-4-(pyridin-2-ylmethoxy)phenyl)amino)-7-((1-methylpiperidin-4-yl)oxy)quinazolin-6-yl)acrylamide], the IC50 lay in the range of 200 to 300 nM on HER2 YVMA [1]; 20 to 30 nM on EGFR V3 [2]; 20 to 30 nM at EGFR V3 [3]; 200 to 300 nM on EGFR WT [4]; 30 to 50 nM at HER2 S310F [5]; 200 to 300 nM at HER2 YVMA [6]. The IC50 at HER2 S310F [7] was 30 to 50 nM; at EGFR WT [8], 200 to 300 nM.
For `C=CC(=O)Nc1cc2c(Nc3ccc(OCc4ccccn4)c(Cl)c3)ncnc2cc1OCCN1CCC(O)CC1` [compound 111, N-(4-((3-chloro-4-(pyridin-2-ylmethoxy)phenyl)amino)-7-(2-(4-hydroxypiperidin-1-yl)ethoxy)quinazolin-6-yl)acrylamide], the IC50 on HER2 YVMA [1] fell in the range of 100 to 200 nM; on EGFR V3 [2], 30 to 50 nM; on EGFR V3 [3], 30 to 50 nM; at EGFR WT [4] it was 300 to 500 nM; at HER2 S310F [5], 30 to 50 nM; at HER2 YVMA [6], 100 to 200 nM. The IC50 at HER2 S310F [7] lay in the range of 30 to 50 nM; on EGFR WT [8], 300 to 500 nM.

The values above are taken from patent US11034672B1, “Tyrosine kinase inhibitor compositions, methods of making and methods of use” (Black Diamond Therapeutics, Inc., priority 2018, dated 2021).
